Measurements taken from the NIST ThermoML archive (doi:10.1021/je900387e).
Numbers after ± are expanded uncertainties.

Assay: xn = mol fraction of the nth substance listed
Conditions: Liquid, Pycnometric method

`CCCCBr` [1-bromobutane] + O=C=O gave a mass density (317.9 K, 12010 kPa, x1 = 0.0989) of 916 ± 4 kg/m3, a mass density (317.9 K, 12060 kPa, x1 = 0.1495) of 1014 ± 4 kg/m3 and a mass density (317.9 K, 12520 kPa, x1 = 0.1495) of 1018 ± 4 kg/m3. For the same molecule, the mass density (317.9 K, 12610 kPa, x1 = 0.0989) was 923 ± 4 kg/m3, the mass density (317.9 K, 12970 kPa, x1 = 0.1495) was 1022 ± 4 kg/m3 and the mass density (317.9 K, 13250 kPa, x1 = 0.0989) was 930 ± 4 kg/m3. It also gave a mass density (317.9 K, 13430 kPa, x1 = 0.1495) of 1026 ± 4 kg/m3, a mass density (317.9 K, 13860 kPa, x1 = 0.1495) of 1029 ± 4 kg/m3 and a mass density (317.9 K, 13890 kPa, x1 = 0.0989) of 937 ± 4 kg/m3. It also gave a mass density (317.9 K, 14380 kPa, x1 = 0.1495) of 1033 ± 4 kg/m3, a mass density (317.9 K, 14630 kPa, x1 = 0.0989) of 944 ± 4 kg/m3 and a mass density (317.9 K, 14800 kPa, x1 = 0.1495) of 1036 ± 4 kg/m3. For the same molecule, the mass density (317.9 K, 14980 kPa, x1 = 0.0989) was 947 ± 4 kg/m3, the mass density (317.9 K, 15020 kPa, x1 = 0.1495) was 1038 ± 4 kg/m3 and the mass density (322.7 K, 8260 kPa, x1 = 0.1495) was 946 ± 4 kg/m3. It also gave a mass density (322.7 K, 8470 kPa, x1 = 0.1495) of 948 ± 4 kg/m3, a mass density (322.7 K, 8500 kPa, x1 = 0.0989) of 818 ± 4 kg/m3 and a mass density (322.7 K, 8710 kPa, x1 = 0.1495) of 952 ± 4 kg/m3. It also gave a mass density (322.7 K, 8720 kPa, x1 = 0.0989) of 825 ± 4 kg/m3, a mass density (322.7 K, 8810 kPa, x1 = 0.0683) of 731 ± 4 kg/m3 and a mass density (322.7 K, 8820 kPa, x1 = 0.0245) of 422 ± 4 kg/m3. The mass density (322.7 K, 8840 kPa, x1 = 0.0245) was 425 ± 4 kg/m3, the mass density (322.7 K, 8860 kPa, x1 = 0.0461) was 629 ± 4 kg/m3 and the mass density (322.7 K, 8880 kPa, x1 = 0.0245) was 432 ± 4 kg/m3. It also gave a mass density (322.7 K, 8880 kPa, x1 = 0.0683) of 735 ± 4 kg/m3, a mass density (322.7 K, 8900 kPa, x1 = 0.0461) of 632 ± 4 kg/m3 and a mass density (322.7 K, 8920 kPa, x1 = 0.0245) of 439 ± 4 kg/m3. It also gave a mass density (322.7 K, 8920 kPa, x1 = 0.0989) of 830 ± 4 kg/m3, a mass density (322.7 K, 8920 kPa, x1 = 0.1495) of 954 ± 4 kg/m3 and a mass density (322.7 K, 8940 kPa, x1 = 0.0461) of 639 ± 4 kg/m3. For the same molecule, the mass density (322.7 K, 8960 kPa, x1 = 0.0245) was 447 ± 4 kg/m3, the mass density (322.7 K, 8970 kPa, x1 = 0.0683) was 740 ± 4 kg/m3 and the mass density (322.7 K, 8990 kPa, x1 = 0.0461) was 647 ± 4 kg/m3. The mass density (322.7 K, 9000 kPa, x1 = 0.0245) was 455 ± 4 kg/m3, the mass density (322.7 K, 9060 kPa, x1 = 0.0461) was 655 ± 4 kg/m3 and the mass density (322.7 K, 9070 kPa, x1 = 0.0245) was 465 ± 4 kg/m3. The mass density (322.7 K, 9070 kPa, x1 = 0.0683) was 745 ± 4 kg/m3, the mass density (322.7 K, 9110 kPa, x1 = 0.0245) was 473 ± 4 kg/m3 and the mass density (322.7 K, 9120 kPa, x1 = 0.0461) was 662 ± 4 kg/m3. The mass density (322.7 K, 9160 kPa, x1 = 0.0245) was 482 ± 4 kg/m3, the mass density (322.7 K, 9160 kPa, x1 = 0.0683) was 750 ± 4 kg/m3 and the mass density (322.7 K, 9160 kPa, x1 = 0.0989) was 836 ± 4 kg/m3. For the same molecule, the mass density (322.7 K, 9160 kPa, x1 = 0.1495) was 958 ± 4 kg/m3, the mass density (322.7 K, 9190 kPa, x1 = 0.0461) was 671 ± 4 kg/m3 and the mass density (322.7 K, 9210 kPa, x1 = 0.0245) was 491 ± 4 kg/m3. It also gave a mass density (322.7 K, 9250 kPa, x1 = 0.0683) of 755 ± 4 kg/m3, a mass density (322.7 K, 9260 kPa, x1 = 0.0245) of 500 ± 4 kg/m3 and a mass density (322.7 K, 9270 kPa, x1 = 0.0461) of 679 ± 4 kg/m3. For the same molecule, the mass density (322.7 K, 9320 kPa, x1 = 0.0245) was 510 ± 4 kg/m3, the mass density (322.7 K, 9360 kPa, x1 = 0.0683) was 759 ± 4 kg/m3 and the mass density (322.7 K, 9370 kPa, x1 = 0.0245) was 520 ± 4 kg/m3. The mass density (322.7 K, 9380 kPa, x1 = 0.0461) was 687 ± 4 kg/m3, the mass density (322.7 K, 9380 kPa, x1 = 0.1495) was 961 ± 4 kg/m3 and the mass density (322.7 K, 9400 kPa, x1 = 0.0989) was 841 ± 4 kg/m3. It also gave a mass density (322.7 K, 9430 kPa, x1 = 0.0245) of 531 ± 4 kg/m3, a mass density (322.7 K, 9480 kPa, x1 = 0.0461) of 696 ± 4 kg/m3 and a mass density (322.7 K, 9480 kPa, x1 = 0.0683) of 765 ± 4 kg/m3. It also gave a mass density (322.7 K, 9500 kPa, x1 = 0.0245) of 542 ± 4 kg/m3, a mass density (322.7 K, 9570 kPa, x1 = 0.0245) of 553 ± 4 kg/m3 and a mass density (322.7 K, 9600 kPa, x1 = 0.0683) of 770 ± 4 kg/m3. For the same molecule, the mass density (322.7 K, 9610 kPa, x1 = 0.0461) was 705 ± 4 kg/m3, the mass density (322.7 K, 9650 kPa, x1 = 0.0989) was 847 ± 4 kg/m3 and the mass density (322.7 K, 9660 kPa, x1 = 0.0245) was 565 ± 4 kg/m3. The mass density (322.7 K, 9670 kPa, x1 = 0.1495) was 964 ± 4 kg/m3, the mass density (322.7 K, 9730 kPa, x1 = 0.0683) was 775 ± 4 kg/m3 and the mass density (322.7 K, 9750 kPa, x1 = 0.0245) was 576 ± 4 kg/m3. For the same molecule, the mass density (322.7 K, 9810 kPa, x1 = 0.0461) was 718 ± 4 kg/m3, the mass density (322.7 K, 9850 kPa, x1 = 0.0245) was 590 ± 4 kg/m3 and the mass density (322.7 K, 9870 kPa, x1 = 0.0683) was 780 ± 4 kg/m3. For the same molecule, the mass density (322.7 K, 9910 kPa, x1 = 0.1495) was 968 ± 4 kg/m3, the mass density (322.7 K, 9930 kPa, x1 = 0.0245) was 599 ± 4 kg/m3 and the mass density (322.7 K, 9930 kPa, x1 = 0.0989) was 853 ± 4 kg/m3. For the same molecule, the mass density (322.7 K, 9990 kPa, x1 = 0.0245) was 606 ± 4 kg/m3, the mass density (322.7 K, 10000 kPa, x1 = 0.0245) was 608 ± 4 kg/m3 and the mass density (322.7 K, 10050 kPa, x1 = 0.0683) was 786 ± 4 kg/m3. The mass density (322.7 K, 10090 kPa, x1 = 0.0461) was 733 ± 4 kg/m3, the mass density (322.7 K, 10160 kPa, x1 = 0.1495) was 971 ± 4 kg/m3 and the mass density (322.7 K, 10230 kPa, x1 = 0.0683) was 791 ± 4 kg/m3. For the same molecule, the mass density (322.7 K, 10240 kPa, x1 = 0.0989) was 859 ± 4 kg/m3, the mass density (322.7 K, 10420 kPa, x1 = 0.0461) was 748 ± 4 kg/m3 and the mass density (322.7 K, 10420 kPa, x1 = 0.0683) was 797 ± 4 kg/m3. It also gave a mass density (322.7 K, 10440 kPa, x1 = 0.1495) of 974 ± 4 kg/m3, a mass density (322.7 K, 10550 kPa, x1 = 0.0989) of 870 ± 4 kg/m3 and a mass density (322.7 K, 10620 kPa, x1 = 0.0683) of 802 ± 4 kg/m3. The mass density (322.7 K, 10760 kPa, x1 = 0.1495) was 977 ± 4 kg/m3, the mass density (322.7 K, 10820 kPa, x1 = 0.0461) was 764 ± 4 kg/m3 and the mass density (322.7 K, 10840 kPa, x1 = 0.0683) was 808 ± 4 kg/m3. For the same molecule, the mass density (322.7 K, 10910 kPa, x1 = 0.0989) was 872 ± 4 kg/m3, the mass density (322.7 K, 10980 kPa, x1 = 0.1495) was 980 ± 4 kg/m3 and the mass density (322.7 K, 11080 kPa, x1 = 0.0683) was 814 ± 4 kg/m3. For the same molecule, the mass density (322.7 K, 11270 kPa, x1 = 0.0989) was 877 ± 4 kg/m3, the mass density (322.7 K, 11290 kPa, x1 = 0.0461) was 779 ± 4 kg/m3 and the mass density (322.7 K, 11340 kPa, x1 = 0.0683) was 820 ± 4 kg/m3. The mass density (322.7 K, 11370 kPa, x1 = 0.1495) was 984 ± 4 kg/m3.
